Assay results as given in ChEMBL document CHEMBL4373724, “An overview of recent progress in siderophore-antibiotic conjugates” (2019).
≈ marks a conversion by molar mass, not a printed value.

How the values were obtained:
Format in all cases: functional
[1] = system: Mycobacterium tuberculosis; experiment: Antitubercular activity against multi drug resistant Mycobacterium tuberculosis isolate 1
[2] = system: Mycobacterium tuberculosis; experiment: Antitubercular activity against extensively drug resistant Mycobacterium tuberculosis isolate 9
[3] = system: Mycobacterium tuberculosis; experiment: Antitubercular activity against extensively drug resistant Mycobacterium tuberculosis isolate 11
[4] = system: Mycobacterium tuberculosis; experiment: Antitubercular activity against multi drug resistant Mycobacterium tuberculosis isolate 5
[5] = system: Mycobacterium tuberculosis; experiment: Antitubercular activity against multi drug resistant Mycobacterium tuberculosis isolate 2
[6] = system: Mycobacterium tuberculosis; experiment: Antitubercular activity against multi drug resistant Mycobacterium tuberculosis isolate 7
[7] = system: Mycobacterium tuberculosis; experiment: Antitubercular activity against extensively drug resistant Mycobacterium tuberculosis isolate 10
[8] = system: Mycobacterium tuberculosis; experiment: Antitubercular activity against multi drug resistant Mycobacterium tuberculosis isolate 3
[9] = system: Mycobacterium tuberculosis; experiment: Antitubercular activity against multi drug resistant Mycobacterium tuberculosis isolate 6
[10] = system: Mycobacterium tuberculosis; experiment: Antitubercular activity against multi drug resistant Mycobacterium tuberculosis isolate 4
[11] = system: Mycobacterium tuberculosis; experiment: Antitubercular activity against extensively drug resistant Mycobacterium tuberculosis isolate 8

Q: Which MIC [1] does the source give for CCCCCCCCCCCCCCCCC(=O)N(O)CCCC[C@H](NC(=O)[C@@H]1COC(c2ccccc2O)=N1)C(=O)NC[C@H](NC(=O)CCCO[C@H]1O[C@@H]2O[C@@]3(C)CC[C@H]4[C@H](C)CC[C@@H]([C@H]1C)[C@@]24OO3)C(=O)N[C@H]1CCCCN(O)C1=O here?
A: 1.25 µg/mL (≈ 1.07 µM)

Q: What about the MIC [2] of the same molecule?
A: 0.078 µg/mL (≈ 0.0668 µM)

Q: And the MIC [3]?
A: 0.31 µg/mL (≈ 0.265 µM)

Q: What about the MIC [4] of the same molecule?
A: 0.156 to 0.312 µg/mL (≈ 0.134 to 0.267 µM)

Q: And the MIC [5]?
A: 0.625 µg/mL (≈ 0.535 µM)

Q: And the MIC [6]?
A: 0.312 µg/mL (≈ 0.267 µM)

Q: What about the MIC [7] of the same molecule?
A: 0.625 µg/mL (≈ 0.535 µM)

Q: And the MIC [8]?
A: 0.625 µg/mL (≈ 0.535 µM)

Q: What about the MIC [9] of the same molecule?
A: 0.625 µg/mL (≈ 0.535 µM)

Q: What about the MIC [10] of the same molecule?
A: 0.625 µg/mL (≈ 0.535 µM)

Q: And the MIC [11]?
A: 0.31 µg/mL (≈ 0.265 µM)
